# Reference: patent publication US8372408B2, “Use of Phaeodactylum algae extract for depigmenting the skin” (LVMH Recherche, priority 2007, dated 2013)
# Experiments:
# [1] = system: 20S and 26S forms of the proteasome in MNT-1 melanocyte line; assay: Anti-proteasome western blot of treated MNT1 cells; format: cell-based, human; conditions: lysis of MNT-1 24 hours and 72 hours after treatment, FIGS. 2A and 2B
# Protocol: (§1) 2.2 Treatment of MNT1 in Order to Assay the Proteasome, the Ubiquitin Proteins and the Tyrosinase by Western Blotting
# (§2) 10^6 MNT1 cells/dish 35 mm in diameter, in quadruplicate
# (§3) Treatment on D1 • Linoleic acid 25 μM • Palmitic acid 25 μM • Phaeodactylum 5 μg/ml
# (§4) +1% bovine serum albumin (BSA)+Vitamin E (Vitamin E) 50 μM+Vitamin C (Vitamin C) 1 mM • Linoleic acid 25 μM • Palmitic acid 25 μM • Phaeodactylum 5 μg/ml
# (§5) Preparation of the Lyzates on D2, D3 and D4
# (§6) Recovery of the cell lawn in 150 μl of Laemmli 2× buffer+1% DTT (10 mM) by scraping.
# Electrophoresis of the proteins is performed in a polyacrylamide minigel 1 mm to […] thick, under denaturing and reducing conditions, in batch buffer according to the Laemmli method (1970). […]
# (§7) The bands are quantified by means of the Gels Analysts 3.01 software.
# In parallel, using specific antibodies, the 20S and 26S forms of the proteasome were quantified by western blotting.
# For the purpose of determining the cause of this activation of the peptidase activities of the proteasome, we evaluated via the western blotting technique the amount of proteasome in the homogenates obtained from the lysis of MNT-1 24 hours and 72 hours after their treatment with extracts of the alga Phaeodactylum tricornutum, with fatty acids, or with a proteasome-dependent proteolysis inhibitor Mg132).
# [2] = system: ubiquitin proteins in MNT-1 melanocyte line; assay: Anti-ubiquitin western blot of treated MNT1 cells; format: cell-based, human; conditions: 24 hours or 72 hours after treatment, FIG. 3A, 3B
# Protocol: as §1, §2, §3, §4, §5, §6
# Electrophoresis of the proteins is performed in a polyacrylamide minigel 1 mm to […] thick, under denaturing and reducing conditions, in batch buffer according to the Laemmli method (1970). The gels containing 12% T, 2.7% C allow separation of the low molecular weight proteins ranging from 20 to 120 kDa. The gels containing 8% T; 2.7% C allow separation of the high molecular weight proteins from 35 to 250 kDa.
# Next, this membrane is placed in contact with the primary antibody diluted to the optimum concentration in PBS-T with or without 5% milk (m/v) depending on the antibody, for 1 hour with stirring at room temperature or overnight at 4° C.
# Under the action of peroxidase and an amplifier, the luminol is oxidized and goes into a transient excited state. […]
# as §7
compound,measurement,setting,value
CCCCC/C=C\C/C=C\CCCCCCCC(=O)O [Linoleic acid],amount of proteasome (expression or distribution of the 20S and 26S forms),[1],does not modify
same,level of ubiquitin proteins,[2],not affected
